Laboratory results as given in US9469650B2, “Melampomagnolide B derivatives” (BOARD OF TRUSTEES OF THE UNIVERSITY OF ARKANSAS, priority 2013, dated 2016).

Experiments:
HOP-62 = assay: panel of 60 human tumor cell lines, growth inhibition (Non-Small Cell Lung Cancer); settings: Homo sapiens
U251 = assay: panel of 60 human tumor cell lines, growth inhibition (CNS Cancer); settings: Homo sapiens
MDA-MB-435 = assay: panel of 60 human tumor cell lines, growth inhibition (Melanoma); settings: Homo sapiens
OVCAR-5 = assay: panel of 60 human tumor cell lines, growth inhibition (Ovarian Cancer); settings: Homo sapiens
DU-145 = assay: panel of 60 human tumor cell lines, growth inhibition (Prostate Cancer); settings: Homo sapiens
NCI-H322M = assay: panel of 60 human tumor cell lines, growth inhibition (Non-Small Cell Lung Cancer); settings: Homo sapiens
786-0 = assay: panel of 60 human tumor cell lines, growth inhibition (Renal Cancer); settings: Homo sapiens
HCT-116 = assay: panel of 60 human tumor cell lines, growth inhibition (Colon Cancer); settings: Homo sapiens
KM12 = assay: as above
SF-539 = assay: panel of 60 human tumor cell lines, growth inhibition (CNS Cancer); settings: Homo sapiens
SK-MEL-2 = assay: panel of 60 human tumor cell lines, growth inhibition (Melanoma); settings: Homo sapiens
SN12C = assay: panel of 60 human tumor cell lines, growth inhibition (Renal Cancer); settings: Homo sapiens
PC-3 = assay: panel of 60 human tumor cell lines, growth inhibition (Prostate Cancer); settings: Homo sapiens
MDA-MB-231/ATCC = assay: panel of 60 human tumor cell lines, growth inhibition (Breast Cancer); settings: Homo sapiens
NCI-H460 = assay: panel of 60 human tumor cell lines, growth inhibition (Non-Small Cell Lung Cancer); settings: Homo sapiens
A498 = assay: panel of 60 human tumor cell lines, growth inhibition (Renal Cancer); settings: Homo sapiens
NCI/ADR-RES = assay: panel of 60 human tumor cell lines, growth inhibition (Ovarian Cancer); settings: Homo sapiens

SMILES: C=C1C(=O)O[C@H]2[C@H]1CC/C(COC(=O)OCCCN1CCCCC1)=C\CC[C@@]1(C)O[C@@H]21 [JVM 2-26]
- GI50 (HOP-62; HOP-62): 15.3 µM
- CC50 (HOP-62; HOP-62, read-out: LC50): 57.7 µM
- IC (TGI) (HOP-62; HOP-62, read-out: TGI): 19.8 µM
- GI50 (U251; U-251): 16.7 µM
- CC50 (U251; U-251, read-out: LC50): 62.7 µM
- IC (TGI) (U251; U-251, read-out: TGI): 32.4 µM
- GI50 (MDA-MB-435; MDA-MB-435): 2990 nM
- CC50 (MDA-MB-435; MDA-MB-435, read-out: LC50): 38.5 µM
- IC (TGI) (MDA-MB-435; MDA-MB-435, read-out: TGI): 13.2 µM
- GI50 (OVCAR-5; OVCAR-5): 10.1 µM
- CC50 (OVCAR-5; OVCAR-5, read-out: LC50): 50.9 µM
- IC (TGI) (OVCAR-5; OVCAR-5, read-out: TGI): 22.7 µM
- GI50 (DU-145; DU-145): 3.19 µM
- CC50 (DU-145; DU-145, read-out: LC50): 35.3 µM
- IC (TGI) (DU-145; DU-145, read-out: TGI): 12.5 µM
- GI50 (NCI-H322M): 17.2 µM
- CC50 (NCI-H322M; read-out: LC50): > 100 µM
- IC (TGI) (NCI-H322M; read-out: TGI): 54.4 µM
- GI50 (786-0; 786-0): 2480 nM
- CC50 (786-0; 786-0, read-out: LC50): 37.3 µM
- IC (TGI) (786-0; 786-0, read-out: TGI): 11.1 µM
- GI50 (HCT-116; HCT-116, HCT-116): 2070 nM
- CC50 (HCT-116; HCT-116, read-out: LC50): 23.9 µM
- IC (TGI) (HCT-116; HCT-116, read-out: TGI): 6.42 µM
- GI50 (KM12; Homo sapiens, KM12): 15.5 µM
- CC50 (KM12; Homo sapiens, KM12, read-out: LC50): 63.3 µM
- TGI (KM12; KM12): 3.13E−5
- Percent Growth (KM12; KM12, Log10 Concentration −4.0): −83%
- Percent Growth (KM12; KM12, Log10 Concentration −5.0): 81%
- Percent Growth (KM12; KM12, Log10 Concentration −6.0): 97%
- Percent Growth (KM12; KM12, Log10 Concentration −7.0): 94%
- Percent Growth (KM12; KM12, Log10 Concentration −8.0): 95%
- GI50 (SF-539; SF-539): 2390 nM
- CC50 (SF-539; SF-539, read-out: LC50): 32.1 µM
- IC (TGI) (SF-539; SF-539, read-out: TGI): 8.7 µM
- GI50 (SK-MEL-2; SK-MEL-2): 11.2 µM
- CC50 (SK-MEL-2; SK-MEL-2, read-out: LC50): 55.8 µM
- IC (TGI) (SK-MEL-2; SK-MEL-2, read-out: TGI): 25.1 µM
- GI50 (SN12C): 8.41 µM
- CC50 (SN12C; read-out: LC50): 55.2 µM
- IC (TGI) (SN12C; read-out: TGI): 22.7 µM
- GI50 (PC-3; PC-3): 12.7 µM
- CC50 (PC-3; PC-3, read-out: LC50): 56.2 µM
- IC (TGI) (PC-3; PC-3, read-out: TGI): 16.7 µM
- GI50 (MDA-MB-231/ATCC; MDA-MB-231): 3.73 µM
- CC50 (MDA-MB-231/ATCC; MDA-MB-231, read-out: LC50): 49.4 µM
- IC (TGI) (MDA-MB-231/ATCC; MDA-MB-231, read-out: TGI): 16.2 µM
- GI50 (NCI-H460; NCI-H460): 16.7 µM
- CC50 (NCI-H460; NCI-H460, read-out: LC50): 77.5 µM
- IC (TGI) (NCI-H460; NCI-H460, read-out: TGI): 36 µM
- GI50 (A498; A498): 10.1 µM
- CC50 (A498; A498, read-out: LC50): 47 µM
- IC (TGI) (A498; A498, read-out: TGI): 21.8 µM
- GI50 (NCI/ADR-RES): 17.2 µM
- CC50 (NCI/ADR-RES; read-out: LC50): > 100 µM
- IC (TGI) (NCI/ADR-RES; read-out: TGI): 45.8 µM
